Test results as given in ChEMBL document CHEMBL1909294, “Translating clinical findings into knowledge in drug safety evaluation--drug induced liver injury prediction system (DILIps)” (PLoS Comput Biol, 2011).

How the values were obtained:
Hepatotoxicity [1] = test system: Hepatotoxicity;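 on HepSE bilirubinemia: bilirubinemia hepatic side effect score drawn from the DILIps training data, a prediction system for drug-induced liver injury; call rule not given here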;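 on HepSE cholecystitis: Cholecystitis-related hepatic side effect score drawn from the DILIps (drug-induced liver injury prediction) training data set; call rule not given here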;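 on HepSE cholelithiasis: hepatic side effect score for cholelithiasis, drawn from the DILIps training data for predicting drug-induced liver injury; call rule not given here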;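 on HepSE cirrhosis: cirrhosis hepatic side effect score taken from the DILIps (drug-induced liver injury prediction) training set; call rule not given here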; on HepSE hepatic failure: call rule not given here;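 on HepSE hepatomegaly: hepatic side effect score for hepatomegaly, taken from the training set of the DILIps drug-induced liver injury prediction system; call rule not given here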;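 on HepSE jaundice: Jaundice-related hepatic side-effect score drawn from the training data of the DILIps (drug-induced liver injury prediction system); call rule not given here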
Hepatotoxicity [2] = test system: Hepatotoxicity; remark: listed apart in the source;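 on HepSE bilirubinemia: bilirubinemia hepatic side effect score drawn from the DILIps training data, a prediction system for drug-induced liver injury; call rule not given here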;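 on HepSE cholecystitis: Cholecystitis-related hepatic side effect score drawn from the DILIps (drug-induced liver injury prediction) training data set; call rule not given here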;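 on HepSE cholelithiasis: hepatic side effect score for cholelithiasis, drawn from the DILIps training data for predicting drug-induced liver injury; call rule not given here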;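 on HepSE cirrhosis: cirrhosis hepatic side effect score taken from the DILIps (drug-induced liver injury prediction) training set; call rule not given here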; on HepSE hepatic failure: call rule not given here;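 on HepSE hepatomegaly: hepatic side effect score for hepatomegaly, taken from the training set of the DILIps drug-induced liver injury prediction system; call rule not given here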;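 on HepSE jaundice: Jaundice-related hepatic side-effect score drawn from the training data of the DILIps (drug-induced liver injury prediction system); call rule not given here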
Hepatotoxicity [3] = test system: Hepatotoxicity; remark: listed apart in the source;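 on HepSE bilirubinemia: bilirubinemia hepatic side effect score drawn from the DILIps training data, a prediction system for drug-induced liver injury; call rule not given here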;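 on HepSE cholecystitis: Cholecystitis-related hepatic side effect score drawn from the DILIps (drug-induced liver injury prediction) training data set; call rule not given here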;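 on HepSE cholelithiasis: hepatic side effect score for cholelithiasis, drawn from the DILIps training data for predicting drug-induced liver injury; call rule not given here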;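 on HepSE cirrhosis: cirrhosis hepatic side effect score taken from the DILIps (drug-induced liver injury prediction) training set; call rule not given here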; on HepSE hepatic failure: call rule not given here;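 on HepSE hepatomegaly: hepatic side effect score for hepatomegaly, taken from the training set of the DILIps drug-induced liver injury prediction system; call rule not given here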
Hepatotoxicity [4] = test system: Hepatotoxicity; remark: listed apart in the source;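 on HepSE bilirubinemia: bilirubinemia hepatic side effect score drawn from the DILIps training data, a prediction system for drug-induced liver injury; call rule not given here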;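 on HepSE cholecystitis: Cholecystitis-related hepatic side effect score drawn from the DILIps (drug-induced liver injury prediction) training data set; call rule not given here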;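 on HepSE cholelithiasis: hepatic side effect score for cholelithiasis, drawn from the DILIps training data for predicting drug-induced liver injury; call rule not given here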;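 on HepSE cirrhosis: cirrhosis hepatic side effect score taken from the DILIps (drug-induced liver injury prediction) training set; call rule not given here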; on HepSE hepatic failure: call rule not given here;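 on HepSE hepatomegaly: hepatic side effect score for hepatomegaly, taken from the training set of the DILIps drug-induced liver injury prediction system; call rule not given here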
Hepatotoxicity [5] = test system: Hepatotoxicity; remark: listed apart in the source; on HepSE hepatic failure: call rule not given here
Hepatotoxicity [6] = test system: Hepatotoxicity; remark: listed apart in the source; on HepSE hepatic failure: call rule not given here
Hepatotoxicity [7] = test system: Hepatotoxicity; remark: listed apart in the source
Hepatotoxicity [8] = test system: Hepatotoxicity; remark: listed apart in the source
Hepatotoxicity [9] = test system: Hepatotoxicity; remark: listed apart in the source
Hepatotoxicity [10] = test system: Hepatotoxicity; remark: listed apart in the source
Hepatotoxicity [11] = test system: Hepatotoxicity; remark: listed apart in the source
Hepatotoxicity [12] = test system: Hepatotoxicity; remark: listed apart in the source

Row | Compound | HepSE_bilirubinemia (Hepatotoxicity [1]; Liver) | HepSE_cholecystitis (Hepatotoxicity [2]; Liver) | HepSE_cholelithiasis (Hepatotoxicity [3]; Liver) | HepSE_cirrhosis (Hepatotoxicity [4]; Liver) | HepSE_hepatic failure (Hepatotoxicity [5]; Liver) | HepSE_hepatic necrosis (Hepatotoxicity [6]; Liver) | HepSE_hepatitis (Hepatotoxicity [7]; Liver) | HepSE_hepatomegaly (Hepatotoxicity [8]; Liver) | HepSE_jaundice (Hepatotoxicity [9]; Liver) | HepSE_liver disease (Hepatotoxicity [10]; Liver) | HepSE_liver fatty (Hepatotoxicity [11]; Liver) | HepSE_Combined Scores (Hepatotoxicity [12]; Liver) | further results
1 | COc1ccc(CCN(C)CCCC(C#N)(c2ccc(OC)c(OC)c2)C(C)C)cc1OC (stereo not given) |  |  |  |  |  |  |  |  |  |  |  |  | HepSE_bilirubinemia (Hepatotoxicity [1]): 0; HepSE_cholecystitis (Hepatotoxicity [2]): 0; HepSE_cholelithiasis (Hepatotoxicity [3]): 0; HepSE_cirrhosis (Hepatotoxicity [4]): 0; HepSE_hepatic failure (Hepatotoxicity [5]): 0; HepSE_hepatic necrosis (Hepatotoxicity [6]): 0; HepSE_hepatitis (Hepatotoxicity [7]): 1; HepSE_hepatomegaly (Hepatotoxicity [8]): 0; HepSE_jaundice (Hepatotoxicity [9]): 1; HepSE_liver disease (Hepatotoxicity [10]): 0; HepSE_liver fatty (Hepatotoxicity [11]): 0; HepSE_Combined Scores (Hepatotoxicity [12]): 2
2 | NCCCC(O)(P(=O)(O)O)P(=O)(O)O [ALENDRONIC ACID] | 0 | 0 | 0 | 0 | 0 | 0 | 0 | 0 | 0 | 0 | 0 | 0 | 
3 | CCCCc1oc2ccccc2c1C(=O)c1cc(I)c(OCCN(CC)CC)c(I)c1 [AMIODARONE] | 0 | 0 | 0 | 1 | 0 | 0 | 1 | 1 | 0 | 1 | 0 | 5 | 
4 | CC(C)NCC(O)COc1ccc(CC(N)=O)cc1 (stereo not given) [ATENOLOL] | 0 | 0 | 0 | 0 | 0 | 0 | 0 | 0 | 0 | 0 | 0 | 0 | 
5 | CC(C)c1c(C(=O)Nc2ccccc2)c(-c2ccccc2)c(-c2ccc(F)cc2)n1CC[C@@H](O)C[C@@H](O)CC(=O)O [ATORVASTATIN] | 0 | 0 | 0 | 0 | 0 | 0 | 1 | 0 | 1 | 0 | 0 | 3 | 
6 | CN1[C@@H]2CC[C@H]1C[C@@H](OC(=O)C(CO)c1ccccc1)C2 (stereo not given in full) [ATROPINE] | 0 | 0 | 0 | 0 | 0 | 0 | 0 | 0 | 0 | 0 | 0 | 0 | 
7 | CC1=C(C(=O)O)N2C(=O)[C@@H](NC(=O)[C@H](N)c3ccccc3)[C@H]2SC1 [CEPHALEXIN ANHYDROUS] | 0 | 0 | 0 | 0 | 0 | 0 | 1 | 0 | 1 | 0 | 0 | 2 | 
8 | O=C(O)COCCN1CCN(C(c2ccccc2)c2ccc(Cl)cc2)CC1 (stereo not given) [CETIRIZINE] | 0 | 0 | 0 | 0 | 0 | 0 | 1 | 0 | 1 | 0 | 0 | 2 | 
9 | O=C(O)c1cn(C2CC2)c2cc(N3CCNCC3)c(F)cc2c1=O [CIPROFLOXACIN] | 1 | 0 | 0 | 0 | 1 | 1 | 1 | 1 | 1 | 0 | 0 | 7 | 
10 | Clc1ccc2c(c1)CCc1cccnc1C2=C1CCNCC1 [DESLORATADINE] |  |  |  |  |  |  |  |  |  |  |  |  | HepSE_bilirubinemia (Hepatotoxicity [1]): 0; HepSE_cholecystitis (Hepatotoxicity [2]): 0; HepSE_cholelithiasis (Hepatotoxicity [3]): 0; HepSE_cirrhosis (Hepatotoxicity [4]): 0; HepSE_hepatic failure (Hepatotoxicity [5]): 0; HepSE_hepatic necrosis (Hepatotoxicity [6]): 0; HepSE_hepatitis (Hepatotoxicity [7]): 1; HepSE_hepatomegaly (Hepatotoxicity [8]): 0; HepSE_jaundice (Hepatotoxicity [9]): 0; HepSE_liver disease (Hepatotoxicity [10]): 0; HepSE_liver fatty (Hepatotoxicity [11]): 0; HepSE_Combined Scores (Hepatotoxicity [12]): 1
11 | CN1C(=O)CN=C(c2ccccc2)c2cc(Cl)ccc21 [DIAZEPAM] | 0 | 0 | 0 | 0 | 0 | 0 | 0 | 0 | 1 | 0 | 0 | 1 | 
12 | CN(C)CCOC(c1ccccc1)c1ccccc1 [DIPHENHYDRAMINE] | 0 | 0 | 0 | 0 | 0 | 0 | 0 | 0 | 0 | 0 | 0 | 0 | 
13 | CC(C)(C(=O)O)c1ccc(C(O)CCCN2CCC(C(O)(c3ccccc3)c3ccccc3)CC2)cc1 (stereo not given) [FEXOFENADINE] | 0 | 0 | 0 | 0 | 0 | 0 | 0 | 0 | 0 | 0 | 0 | 0 | 
14 | Cc1ccc(NC(=O)c2ccc(CN3CCN(C)CC3)cc2)cc1Nc1nccc(-c2cccnc2)n1 [IMATINIB] |  |  |  |  |  |  |  |  |  |  |  |  | HepSE_bilirubinemia (Hepatotoxicity [1]): 0; HepSE_cholecystitis (Hepatotoxicity [2]): 0; HepSE_cholelithiasis (Hepatotoxicity [3]): 0; HepSE_cirrhosis (Hepatotoxicity [4]): 0; HepSE_hepatic failure (Hepatotoxicity [5]): 1; HepSE_hepatic necrosis (Hepatotoxicity [6]): 1; HepSE_hepatitis (Hepatotoxicity [7]): 1; HepSE_hepatomegaly (Hepatotoxicity [8]): 0; HepSE_jaundice (Hepatotoxicity [9]): 1; HepSE_liver disease (Hepatotoxicity [10]): 0; HepSE_liver fatty (Hepatotoxicity [11]): 0; HepSE_Combined Scores (Hepatotoxicity [12]): 4
15 | CCN(CC)CC(=O)Nc1c(C)cccc1C [LIDOCAINE] | 0 | 0 | 0 | 0 | 0 | 0 | 0 | 0 | 0 | 0 | 0 | 0 | 
16 | CCOC(=O)N1CCC(=C2c3ccc(Cl)cc3CCc3cccnc32)CC1 [LORATADINE] | 0 | 0 | 0 | 0 | 0 | 0 | 0 | 0 | 0 | 0 | 0 | 0 | 
17 | CN1CC[C@]23c4c5ccc(O)c4O[C@H]2[C@@H](O)C=C[C@H]3[C@H]1C5 [MORPHINE] | 0 | 0 | 0 | 0 | 0 | 0 | 0 | 0 | 0 | 0 | 0 | 1 | 
18 | COc1ccc2cc([C@H](C)C(=O)O)ccc2c1 [NAPROXEN] | 0 | 1 | 1 | 0 | 1 | 0 | 1 | 0 | 1 | 0 | 0 | 6 | 
19 | CCCNCC(O)COc1ccccc1C(=O)CCc1ccccc1 (stereo not given) [PROPAFENONE] | 0 | 0 | 0 | 0 | 0 | 0 | 1 | 1 | 1 | 0 | 0 | 4 | 
20 | CC(C)c1nc(CN(C)C(=O)N[C@H](C(=O)N[C@@H](Cc2ccccc2)C[C@H](O)[C@H](Cc2ccccc2)NC(=O)OCc2cncs2)C(C)C)cs1 [RITONAVIR] |  |  |  |  |  |  |  |  |  |  |  |  | HepSE_cholecystitis (Hepatotoxicity [2]): 0; HepSE_cholelithiasis (Hepatotoxicity [3]): 0; HepSE_cirrhosis (Hepatotoxicity [4]): 0; HepSE_hepatic necrosis (Hepatotoxicity [6]): 0; HepSE_hepatitis (Hepatotoxicity [7]): 1; HepSE_hepatomegaly (Hepatotoxicity [8]): 1; HepSE_jaundice (Hepatotoxicity [9]): 1; HepSE_liver disease (Hepatotoxicity [10]): 0; HepSE_liver fatty (Hepatotoxicity [11]): 0; HepSE_Combined Scores (Hepatotoxicity [12]): 3
21 | CN1[C@@H]2C[C@@H](OC(=O)[C@H](CO)c3ccccc3)C[C@H]1[C@@H]1O[C@@H]12 [SCOPOLAMINE] | 0 | 0 | 0 | 0 | 0 | 0 | 0 | 0 | 0 | 0 | 0 | 0 | 
